Source: ChEMBL document CHEMBL5038633 (J Med Chem, 2022)
The source made the active and inactive calls. No cut-off for these calls is given here. *1 amine or outer side, *2 acyl side, *3 side chain or, on linkers, in order; H or OH if unused. Where a SMILES comes first, the peptide text is derived from it. Bridges are numbered along the chain shown (N, C = ends). [ ]: non-standard residue; d: D form. Abu(4,4,4-F3) = N[C@@H](CC(F)(F)F)C(=O)O; Phe(4-Cl) = N[C@@H](Cc1ccc(Cl)cc1)C(=O)O; X1 = O=C(O)/C=C/[C@H](N[*:1])C(=O)[*:2]; Cha = N[C@@H](CC1CCCCC1)C(=O)O; Chg = N[C@H](C(=O)O)C1CCCCC1

Tests used:
[1] = Ratio of IC50 for inhibition of rat Nav1.7 stably expressed in cells to EC50 for antinociceptive activity against Sprague-Dawley rat model of thermal stimuli induced nociception assessed as concentration required for maximal tail flick withdrawal latency; format: functional
[2] = target: Sodium channel protein type 9 subunit alpha (Rattus norvegicus, UniProt O08562); assay: Inhibition of rat Nav1.7 stably expressed in cells with train pulses to -20 mV at 0.1 Hz and holding potential of -90 mV by whole-cell QPatch HT assay; format: cell-based
Rattus norvegicus [3] = assay: Antinociceptive activity against Sprague-Dawley rat model of thermal stimuli induced nociception assessed as increase in tail withdrawal latency administered subcutaneously as single dose measured up to 24 hrs by tail flick test; format: functional, organism-based; details: time hrs <=24
[4] = target: T1, Sodium channel protein type 9 subunit alpha (Homo sapiens, UniProt Q15858); assay: Inhibition of human Nav1.7 stably expressed in cells with train pulses to -20 mV at 0.1 Hz and holding potential of -95 mV by Qube-automated patch clamp assay; format: cell-based
[5] = target: T1, Sodium channel protein type 9 subunit alpha; assay: Inhibition of human Nav1.7 stably expressed in cells with train pulses to -20 mV at 0.1 Hz and holding potential of -95 mV by whole-cell QPatch HT assay; format: cell-based
[6] = target: Sodium channel protein type 4 subunit alpha (Homo sapiens, UniProt P35499); assay: Inhibition of human Nav1.4 stably expressed in cells with train pulses to -20 mV at 0.1 Hz and holding potential of -95 mV by whole-cell Qube-automated patch clamp assay; format: cell-based
Mast cell = assay: Effect on mast cell degranulation in Wistar Han rat peritoneal lavage mast cells assessed as increase in maximum histamine level in plasma at upto 1 mg/kg, iv administered as bolus dose measured up to 24 hrs by LC/MS/MS analysis; format: functional, organism-based; details: dose mg/kg <=1, time hrs <=24
[7] = target: Sodium channel protein type 8 subunit alpha (Homo sapiens, UniProt Q9UQD0); assay: Inhibition of human Nav1.6 stably expressed in cells with train pulses to -20 mV at 0.1 Hz and holding potential of -85 mV by whole-cell Qube-automated patch clamp assay; format: cell-based
[8] = target: Voltage-gated inwardly rectifying potassium channel KCNH2 (Homo sapiens, UniProt Q12809); assay: Inhibition of human ERG by PatchXpress assay; format: toxicity
[9] = Inhibition of mast cell degranulation in Wistar Han rat peritoneal lavage mast cells assessed as inhibition histamine release by measuring lowest concentration at which histamine release observed measured after 30 mins; format: functional; details: 0.5 h
Rattus norvegicus [10] = assay: Antinociceptive activity against Sprague-Dawley rat model of thermal stimuli induced nociception assessed as concentration required for maximal tail flick withdrawal latency administered subcutaneously as single dose measured up to 24 hrs by tail flick test; format: functional, organism-based
[11] = Half life in Wistar Han rat at 0.3 mg/kg, iv measured upto 24 hrs by LC/MS/MS analysis; format: ADME, organism-based; details: in vivo
[12] = target: Voltage-dependent L-type calcium channel subunit alpha-1C (Homo sapiens, UniProt Q13936); assay: Inhibition of human Cav1.2 stably expressed in HEK293 cells incubated for 30 mins in dark by Fluo-4 AM dye based FLIPR assay; format: cell-based
[13] = target: Sodium channel protein type 5 subunit alpha (Homo sapiens, UniProt Q14524); assay: Inhibition of human Nav1.5 by PatchXpress assay; format: toxicity
[14] = target: Sodium channel protein type 2 subunit alpha (Homo sapiens, UniProt Q99250); assay: Inhibition of human Nav1.2 stably expressed in cells with train pulses to -20 mV at 0.1 Hz and holding potential of -95 mV by Qube-automated patch clamp assay; format: cell-based

Sequence of Sodium channel protein type 8 subunit alpha (Q9UQD0 whole entry): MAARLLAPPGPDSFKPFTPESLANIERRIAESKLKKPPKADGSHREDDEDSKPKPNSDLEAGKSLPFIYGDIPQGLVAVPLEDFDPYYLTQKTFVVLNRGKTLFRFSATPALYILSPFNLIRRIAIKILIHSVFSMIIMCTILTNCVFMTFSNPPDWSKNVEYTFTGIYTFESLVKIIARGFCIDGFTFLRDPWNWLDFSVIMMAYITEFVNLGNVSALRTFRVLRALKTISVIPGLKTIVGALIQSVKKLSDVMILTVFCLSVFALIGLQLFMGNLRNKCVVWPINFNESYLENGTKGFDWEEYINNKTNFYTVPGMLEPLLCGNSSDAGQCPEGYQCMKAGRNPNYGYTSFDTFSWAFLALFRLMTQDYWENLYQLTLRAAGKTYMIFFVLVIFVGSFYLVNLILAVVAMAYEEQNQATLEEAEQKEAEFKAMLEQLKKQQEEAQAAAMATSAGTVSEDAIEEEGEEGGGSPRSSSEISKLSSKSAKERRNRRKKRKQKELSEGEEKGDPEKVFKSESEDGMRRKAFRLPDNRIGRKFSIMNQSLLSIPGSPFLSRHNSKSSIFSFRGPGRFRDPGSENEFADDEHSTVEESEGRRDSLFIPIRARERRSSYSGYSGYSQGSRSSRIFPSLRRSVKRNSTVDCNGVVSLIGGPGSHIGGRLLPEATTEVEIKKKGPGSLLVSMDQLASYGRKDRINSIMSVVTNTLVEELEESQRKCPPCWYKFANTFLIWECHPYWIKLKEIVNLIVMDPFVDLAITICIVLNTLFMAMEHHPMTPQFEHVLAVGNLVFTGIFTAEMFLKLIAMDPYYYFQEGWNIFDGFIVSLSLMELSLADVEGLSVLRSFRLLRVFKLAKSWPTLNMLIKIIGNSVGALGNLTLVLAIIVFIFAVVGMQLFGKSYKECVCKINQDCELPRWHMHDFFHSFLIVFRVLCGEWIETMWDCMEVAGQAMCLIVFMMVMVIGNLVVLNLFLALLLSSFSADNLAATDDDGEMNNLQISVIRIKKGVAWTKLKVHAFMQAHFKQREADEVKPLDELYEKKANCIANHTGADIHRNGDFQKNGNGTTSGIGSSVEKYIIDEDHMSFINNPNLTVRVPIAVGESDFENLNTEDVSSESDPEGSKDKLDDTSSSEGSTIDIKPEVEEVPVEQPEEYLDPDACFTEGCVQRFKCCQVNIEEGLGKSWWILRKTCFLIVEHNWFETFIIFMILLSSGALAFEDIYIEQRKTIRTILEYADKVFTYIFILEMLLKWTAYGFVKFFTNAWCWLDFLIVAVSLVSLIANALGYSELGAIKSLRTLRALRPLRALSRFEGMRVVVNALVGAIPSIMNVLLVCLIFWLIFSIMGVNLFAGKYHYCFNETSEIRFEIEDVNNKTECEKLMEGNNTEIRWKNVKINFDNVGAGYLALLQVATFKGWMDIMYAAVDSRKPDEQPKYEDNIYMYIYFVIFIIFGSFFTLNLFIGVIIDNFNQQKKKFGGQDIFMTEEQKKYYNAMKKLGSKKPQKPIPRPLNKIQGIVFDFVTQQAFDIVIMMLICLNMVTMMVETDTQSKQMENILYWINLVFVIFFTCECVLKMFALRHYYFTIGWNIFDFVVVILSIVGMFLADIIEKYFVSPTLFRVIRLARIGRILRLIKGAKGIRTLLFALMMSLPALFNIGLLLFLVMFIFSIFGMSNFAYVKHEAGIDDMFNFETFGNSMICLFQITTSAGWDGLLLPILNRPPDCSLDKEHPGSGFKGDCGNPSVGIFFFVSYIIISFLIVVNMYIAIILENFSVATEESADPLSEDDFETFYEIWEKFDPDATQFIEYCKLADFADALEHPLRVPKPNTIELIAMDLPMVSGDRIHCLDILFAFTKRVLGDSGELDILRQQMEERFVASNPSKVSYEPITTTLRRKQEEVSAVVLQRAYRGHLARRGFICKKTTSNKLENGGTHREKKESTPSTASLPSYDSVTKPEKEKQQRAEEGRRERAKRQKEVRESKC
T1 sequence (Q15858 whole entry): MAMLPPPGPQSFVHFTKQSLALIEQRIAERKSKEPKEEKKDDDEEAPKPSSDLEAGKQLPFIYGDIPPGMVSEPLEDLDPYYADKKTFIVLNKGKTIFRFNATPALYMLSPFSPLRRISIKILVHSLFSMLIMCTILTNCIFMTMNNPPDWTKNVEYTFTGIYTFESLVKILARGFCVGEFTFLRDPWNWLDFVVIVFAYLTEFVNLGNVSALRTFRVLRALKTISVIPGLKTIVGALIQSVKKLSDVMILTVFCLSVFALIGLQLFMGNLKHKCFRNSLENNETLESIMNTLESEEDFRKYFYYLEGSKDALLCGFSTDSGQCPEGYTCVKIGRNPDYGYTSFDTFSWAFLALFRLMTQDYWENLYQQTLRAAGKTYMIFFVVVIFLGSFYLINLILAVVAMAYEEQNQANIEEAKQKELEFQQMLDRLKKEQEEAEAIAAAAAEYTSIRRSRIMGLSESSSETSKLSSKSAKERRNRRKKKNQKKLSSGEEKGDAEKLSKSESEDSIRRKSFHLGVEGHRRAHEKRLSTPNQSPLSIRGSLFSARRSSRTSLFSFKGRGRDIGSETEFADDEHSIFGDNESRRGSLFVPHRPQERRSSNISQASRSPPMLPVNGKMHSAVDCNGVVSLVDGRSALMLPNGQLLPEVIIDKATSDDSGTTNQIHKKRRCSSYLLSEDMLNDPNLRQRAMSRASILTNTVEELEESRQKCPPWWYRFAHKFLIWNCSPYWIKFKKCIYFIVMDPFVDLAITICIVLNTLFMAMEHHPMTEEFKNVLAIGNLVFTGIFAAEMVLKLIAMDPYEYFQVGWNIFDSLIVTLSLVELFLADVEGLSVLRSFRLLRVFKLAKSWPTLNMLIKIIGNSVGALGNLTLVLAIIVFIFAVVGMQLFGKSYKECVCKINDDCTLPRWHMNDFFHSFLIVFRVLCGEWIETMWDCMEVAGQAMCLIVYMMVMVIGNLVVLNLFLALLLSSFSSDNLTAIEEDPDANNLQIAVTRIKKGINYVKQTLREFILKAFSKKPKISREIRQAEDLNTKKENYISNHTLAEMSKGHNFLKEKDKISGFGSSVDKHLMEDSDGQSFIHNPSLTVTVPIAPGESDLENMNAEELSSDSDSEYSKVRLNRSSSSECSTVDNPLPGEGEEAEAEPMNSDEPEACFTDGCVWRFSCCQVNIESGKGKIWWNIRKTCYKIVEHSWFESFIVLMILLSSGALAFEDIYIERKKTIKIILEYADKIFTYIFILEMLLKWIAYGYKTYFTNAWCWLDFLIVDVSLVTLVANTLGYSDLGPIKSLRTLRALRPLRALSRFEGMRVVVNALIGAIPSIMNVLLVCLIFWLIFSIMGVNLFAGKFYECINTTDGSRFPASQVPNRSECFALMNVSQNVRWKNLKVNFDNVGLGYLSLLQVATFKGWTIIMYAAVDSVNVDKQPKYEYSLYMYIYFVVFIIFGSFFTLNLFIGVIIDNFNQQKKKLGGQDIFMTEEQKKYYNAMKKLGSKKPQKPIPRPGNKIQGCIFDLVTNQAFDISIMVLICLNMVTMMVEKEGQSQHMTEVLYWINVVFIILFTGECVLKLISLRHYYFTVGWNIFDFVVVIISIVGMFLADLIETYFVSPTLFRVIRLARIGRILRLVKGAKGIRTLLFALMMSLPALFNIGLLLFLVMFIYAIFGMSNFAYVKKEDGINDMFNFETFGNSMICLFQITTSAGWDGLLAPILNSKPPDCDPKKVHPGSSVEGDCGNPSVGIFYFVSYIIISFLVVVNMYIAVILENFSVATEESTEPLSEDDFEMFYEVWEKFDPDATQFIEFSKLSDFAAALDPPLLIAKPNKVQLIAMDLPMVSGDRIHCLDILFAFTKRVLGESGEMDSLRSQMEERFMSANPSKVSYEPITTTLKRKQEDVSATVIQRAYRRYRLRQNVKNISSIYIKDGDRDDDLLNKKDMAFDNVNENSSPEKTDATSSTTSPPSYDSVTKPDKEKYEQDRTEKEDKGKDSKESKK
Sequence of Voltage-gated inwardly rectifying potassium channel KCNH2 (Q12809 whole entry): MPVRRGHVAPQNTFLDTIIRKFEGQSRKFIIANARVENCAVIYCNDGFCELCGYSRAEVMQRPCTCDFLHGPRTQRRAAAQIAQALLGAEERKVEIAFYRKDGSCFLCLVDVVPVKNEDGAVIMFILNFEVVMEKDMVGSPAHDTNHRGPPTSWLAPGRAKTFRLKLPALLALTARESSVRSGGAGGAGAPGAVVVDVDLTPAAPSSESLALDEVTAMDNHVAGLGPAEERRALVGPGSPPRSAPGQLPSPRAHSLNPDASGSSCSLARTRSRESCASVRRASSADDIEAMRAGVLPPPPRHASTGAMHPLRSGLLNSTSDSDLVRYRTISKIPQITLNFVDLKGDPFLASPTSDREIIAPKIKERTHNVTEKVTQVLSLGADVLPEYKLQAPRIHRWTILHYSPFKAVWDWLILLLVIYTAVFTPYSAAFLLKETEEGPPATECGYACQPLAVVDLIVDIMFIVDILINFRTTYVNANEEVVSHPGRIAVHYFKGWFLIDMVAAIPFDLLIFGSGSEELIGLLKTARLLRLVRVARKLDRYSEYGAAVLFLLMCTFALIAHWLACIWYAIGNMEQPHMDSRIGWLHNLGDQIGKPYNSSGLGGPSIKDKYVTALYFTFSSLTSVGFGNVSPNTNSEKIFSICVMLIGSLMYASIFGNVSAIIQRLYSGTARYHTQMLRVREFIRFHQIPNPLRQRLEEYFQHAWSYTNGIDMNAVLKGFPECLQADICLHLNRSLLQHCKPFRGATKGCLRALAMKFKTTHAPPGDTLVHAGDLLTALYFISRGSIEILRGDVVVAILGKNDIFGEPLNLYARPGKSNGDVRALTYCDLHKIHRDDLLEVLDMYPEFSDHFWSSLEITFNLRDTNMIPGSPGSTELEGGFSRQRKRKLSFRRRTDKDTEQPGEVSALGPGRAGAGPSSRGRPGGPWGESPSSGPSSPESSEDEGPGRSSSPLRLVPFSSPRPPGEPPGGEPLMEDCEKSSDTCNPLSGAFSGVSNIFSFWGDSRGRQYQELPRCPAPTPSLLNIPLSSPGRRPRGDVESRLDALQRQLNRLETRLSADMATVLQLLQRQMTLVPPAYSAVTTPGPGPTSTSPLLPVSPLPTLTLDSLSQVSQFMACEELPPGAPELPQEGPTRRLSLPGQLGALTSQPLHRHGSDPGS

Structure (SMILES) | fold change (FC) [1] | IC50 [2] | Activity (Rattus norvegicus [3]) | IC50 [4] | IC50 [5] | IC50 [6] | Activity (Mast cell) | IC50 [7] | IC50 [8] | LED [9] | EC50 (Rattus norvegicus [10]) | half-life [11] | IC50 [12] | IC50 [13] | IC50 [14]
CC(=O)N[C@H]1CSSC[C@@H]2NC(=O)[C@@H]3CSSC[C@@H](C(=O)N[C@@H](CCCCN)C(=O)N[C@@H](CCCCN)C(=O)N[C@@H](CCCCN)C(=O)N[C@@H](CC(C)C)C(=O)N[C@@H](Cc4c[nH]c5ccccc45)C(N)=O)NC(=O)[C@H](Cc4c[nH]c5ccccc45)NC(=O)[C@H](CC(C)C)NC(=O)[C@H](CCCCN)NC(=O)[C@H](CSSC[C@H](NC(=O)[C@@H]4CCCN4C(=O)[C@H](CCC(=O)O)NC(=O)[C@H](CC(C)C)NC(=O)[C@H](Cc4ccccc4)NC(=O)[C@H](CCCCN)NC(=O)[C@H](CCC(N)=O)NC1=O)C(=O)N[C@@H](CC(=O)O)C(=O)N[C@@H](CO)C(=O)N[C@@H](CCC(=O)O)C(=O)N[C@@H](CCCNC(=N)N)C(=O)N[C@@H](CCCCN)C(=O)N3)NC(=O)[C@H](CCC(=O)O)NC(=O)[C@H](CC(C)C)NC(=O)CNC(=O)[C@H](CCC(=O)O)NC2=O (Ac-CQKFLEPCDSERKCCEGLECKLWCKKKLW-NH2; disulfide 1-15, 8-20, 14-24) | 50 | 0.0188 µM | Dose-Dependent Effect | 0.183 µM | 0.133 µM | > 17 µM | inactive | > 17 µM | > 15 µM | 30 µM | 1.62 µM | < 3 h | > 30 µM | > 15 µM | > 17 µM
CC(=O)N[C@H]1CSSC[C@@H]2NC(=O)[C@@H]3CSSC[C@@H](C(=O)N[C@@H](CCCCN)C(=O)N[C@@H](CCCCN)C(=O)N[C@@H](CCCCN)C(=O)N[C@@H](CC(C)C)C(=O)N[C@@H](Cc4c[nH]c5ccccc45)C(N)=O)NC(=O)[C@H](Cc4c[nH]c5ccccc45)NC(=O)[C@H](CC(C)C)NC(=O)[C@H](CCCNC(=N)N)NC(=O)[C@H](CSSC[C@H](NC(=O)[C@@H]4CCCN4C(=O)[C@H](CCCCN)NC(=O)[C@H](CC(C)C)NC(=O)[C@H](Cc4ccccc4)NC(=O)[C@H](CCC(=O)O)NC(=O)[C@H](CCC(N)=O)NC1=O)C(=O)N[C@@H](CC(=O)O)C(=O)N[C@@H](CO)C(=O)N[C@@H](CCC(=O)O)C(=O)N[C@@H](CCCNC(=N)N)C(=O)N[C@@H](CCCCN)C(=O)N3)NC(=O)[C@H](C(C)C)NC(=O)[C@H](CC(C)C)NC(=O)CNC(=O)[C@H](CCC(=O)O)NC2=O (Ac-CQEFLKPCDSERKCCEGLVCRLWCKKKLW-NH2; disulfide 1-15, 8-20, 14-24) |  |  |  | 0.027 µM |  | 4.14 µM |  | 4.83 µM |  | 10 µM |  |  |  |  | 
CC(=O)N[C@H]1CSSC[C@@H]2NC(=O)[C@@H]3CSSC[C@@H](C(=O)N[C@@H](CCCCN)C(=O)N[C@@H](CCCCN)C(=O)N[C@@H](CCCCN)C(=O)N[C@@H](CC(C)C)C(=O)N[C@@H](Cc4c[nH]c5ccccc45)C(N)=O)NC(=O)[C@H](Cc4c[nH]c5ccccc45)NC(=O)[C@H](C4CCCCC4)NC(=O)[C@H](CCCCN)NC(=O)[C@H](CSSC[C@H](NC(=O)[C@@H]4CCCN4C(=O)[C@H](CCC(=O)O)NC(=O)[C@H](CC(F)(F)F)NC(=O)[C@H](CC4CCCCC4)NC(=O)[C@H](CCCCN)NC(=O)[C@H](CCC(N)=O)NC1=O)C(=O)N[C@@H](CC(=O)O)C(=O)N[C@@H](CO)C(=O)N[C@@H](CCC(=O)O)C(=O)N[C@@H](CCCNC(=N)N)C(=O)N[C@@H](CCCCN)C(=O)N3)NC(=O)[C@H](CCC(=O)O)NC(=O)[C@H](CC(C)C)NC(=O)CNC(=O)[C@H](CCC(=O)O)NC2=O (Ac-CQK[Cha][Abu(4,4,4-F3)]EPCDSERKCCEGLECK[Chg]WCKKKLW-NH2; disulfide 1-15, 8-20, 14-24) |  |  |  | 0.109 µM |  | > 17 µM |  | > 17 µM |  | 30 µM |  |  |  |  | 
CC(=O)N[C@H]1CSSC[C@@H]2NC(=O)[C@@H]3CSSC[C@@H](C(=O)N[C@@H](CCCCN)C(=O)N[C@@H](CCCCN)C(=O)N[C@@H](CCCCN)C(=O)N[C@@H](CC(C)C)C(=O)N[C@@H](Cc4c[nH]c5ccccc45)C(N)=O)NC(=O)[C@H](Cc4c[nH]c5ccccc45)NC(=O)[C@H](C4CCCCC4)NC(=O)[C@H](CCCCN)NC(=O)[C@H](CSSC[C@H](NC(=O)[C@@H]4CCCN4C(=O)[C@H](CCC(=O)O)NC(=O)[C@H](CC(F)(F)F)NC(=O)[C@H](Cc4ccccc4)NC(=O)[C@H](CCCCN)NC(=O)[C@H](CCC(N)=O)NC1=O)C(=O)N[C@@H](CC(=O)O)C(=O)N[C@@H](CO)C(=O)N[C@@H](CCC(=O)O)C(=O)N[C@@H](CCCNC(=N)N)C(=O)N[C@@H](CCCCN)C(=O)N3)NC(=O)[C@H](CCC(=O)O)NC(=O)[C@H](CC(C)C)NC(=O)CNC(=O)[C@H](CCC(=O)O)NC2=O (Ac-CQKF[Abu(4,4,4-F3)]EPCDSERKCCEGLECK[Chg]WCKKKLW-NH2; disulfide 1-15, 8-20, 14-24) |  |  |  | 0.084 µM |  | > 17 µM |  | > 17 µM |  | 30 µM |  |  |  |  | 
CC(=O)N[C@H]1CSSC[C@@H]2NC(=O)[C@@H]3CSSC[C@@H](C(=O)N[C@@H](CCCCN)C(=O)N[C@@H](CCCCN)C(=O)N[C@@H](CCCCN)C(=O)N[C@@H](CC(C)C)C(=O)N[C@@H](Cc4c[nH]c5ccccc45)C(N)=O)NC(=O)[C@H](Cc4c[nH]c5ccccc45)NC(=O)[C@H](CC(C)C)NC(=O)[C@H](C(C)C)NC(=O)[C@H](CSSC[C@H](NC(=O)[C@@H]4CCCN4C(=O)[C@H](C)NC(=O)[C@H](CC(C)C)NC(=O)[C@H](Cc4ccccc4)NC(=O)[C@H](CCCCN)NC(=O)[C@H](CCC(N)=O)NC1=O)C(=O)N[C@@H](CC(=O)O)C(=O)N[C@@H](CCCCN)C(=O)N[C@@H](/C=C/C(=O)O)C(=O)N[C@@H](CCCNC(=N)N)C(=O)N[C@@H](CCCCN)C(=O)N3)NC(=O)[C@H](CCC(=O)O)NC(=O)[C@H](CC(C)C)NC(=O)CNC(=O)[C@H](CCC(=O)O)NC2=O (Ac-CQKFLAPCDK[X1]RKCCEGLECVLWCKKKLW-NH2; disulfide 1-15, 8-20, 14-24) |  |  |  | 0.099 µM |  | > 17 µM |  | > 17 µM |  | 33 µM |  |  |  |  | 
CC(=O)N[C@H]1CSSC[C@@H]2NC(=O)[C@@H]3CSSC[C@@H](C(=O)N[C@@H](CCCCN)C(=O)N[C@@H](CCCCN)C(=O)N[C@@H](CCCCN)C(=O)N[C@@H](CC(C)C)C(=O)N[C@@H](Cc4c[nH]c5ccccc45)C(N)=O)NC(=O)[C@H](Cc4c[nH]c5ccccc45)NC(=O)[C@H](CC(C)C)NC(=O)[C@H](C(C)C)NC(=O)[C@H](CSSC[C@H](NC(=O)[C@@H]4CCCN4C(=O)[C@H](C)NC(=O)[C@H](CC(C)C)NC(=O)[C@H](Cc4ccccc4)NC(=O)[C@H](CCCCN)NC(=O)[C@H](CCC(N)=O)NC1=O)C(=O)N[C@@H](CC(=O)O)C(=O)N[C@@H](CO)C(=O)N[C@@H](CCC(=O)O)C(=O)N[C@@H](CCCNC(=N)N)C(=O)N[C@@H](CCCCN)C(=O)N3)NC(=O)[C@H](CCC(=O)O)NC(=O)[C@H](CC(C)C)NC(=O)CNC(=O)[C@H](CCC(=O)O)NC2=O (Ac-CQKFLAPCDSERKCCEGLECVLWCKKKLW-NH2; disulfide 1-15, 8-20, 14-24) |  |  |  | 0.232 µM |  | > 17 µM |  | > 17 µM |  | 30 µM |  |  |  |  | 
CC(=O)N[C@H]1CSSC[C@@H]2NC(=O)[C@@H]3CSSC[C@@H](C(=O)N[C@@H](CCCCN)C(=O)N[C@@H](CCCCN)C(=O)N[C@@H](CCCCN)C(=O)N[C@@H](CC(C)C)C(=O)N[C@@H](Cc4c[nH]c5ccccc45)C(=O)O)NC(=O)[C@H](Cc4c[nH]c5ccccc45)NC(=O)[C@H](C4CCCCC4)NC(=O)[C@H](CCCCN)NC(=O)[C@H](CSSC[C@H](NC(=O)[C@@H]4CCCN4C(=O)[C@H](CCC(=O)O)NC(=O)[C@H](CC(F)(F)F)NC(=O)[C@H](Cc4ccc(Cl)cc4)NC(=O)[C@H](CCCCN)NC(=O)[C@H](CCC(N)=O)NC1=O)C(=O)N[C@@H](CC(=O)O)C(=O)N[C@@H](CO)C(=O)N[C@@H](CCC(=O)O)C(=O)N[C@@H](CCCNC(=N)N)C(=O)N[C@@H](CCCCN)C(=O)N3)NC(=O)[C@H](CCC(=O)O)NC(=O)[C@H](CC(C)C)NC(=O)CNC(=O)[C@H](CCC(=O)O)NC2=O (Ac-CQK[Phe(4-Cl)][Abu(4,4,4-F3)]EPCDSERKCCEGLECK[Chg]WCKKKLW-OH; disulfide 1-15, 8-20, 14-24) |  |  |  | 0.091 µM |  | > 17 µM |  | 11.1 µM |  | 30 µM |  |  |  |  | 
